Reference: patent publication US20230286973A1, “PROTEIN SECRETION INHIBITORS” (KEZAR LIFE SCIENCES, priority 2020, published 2023)
Each block holds one molecule with its values, some of them ahead of it.

Experiments:
[1] = test system: HER3-ss+4aa/Gaussia Luciferase; assay: Dox-Induced Her3-ss-Gluc Assay; format: cell-based; conditions: 24 hr Dox induction; 293FRT/TO cells; read-out: 24 hr Dox Inducible Her3(ss + 4)Gluc 293FRT/TO: Mean IC50
Outline: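 Doxycycline-inducible HER3 signal sequence+4aa/Gaussia luciferase construct, stably integrated in Flp-In 293 T-REx cells; compound dilutions applied with doxycycline at 37° C., 5% CO2.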

[2] = Liver Microsome Stability Assay (mouse); conditions: mouse liver microsomes, with NADPH, 1.0 uM compound
Description: (§1) Stability of a compound was assessed in the presence of liver microsomes from various sources—mouse, rat, monkey and human liver microsomes. 1.0 uM compound, 0.4% DMSO in 0.1 M Potassium Phosphate with 1.0 mg/mL liver microsomes, were incubated at 37° C. with or without 1 mM NADPH. The samples were quenched at 0, and 30 minutes.

[3] = test system: multiple myeloma cell line U266B1; assay: U266 Cell Viability Assay; format: cell-based, human; conditions: Homo sapiens, U-266, 48 h, U266B1 cells, Celltiter-Glo
Outline: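 After growth in serum-supplemented RPMI 1640, cells received serially diluted compound in DMSO/media and were kept 48 hours before a CellTiter-Glo luminescence readout.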

[4] = test system: PD1-ss+10aa/Gaussia Luciferase; assay: Dox-Induced PD1-ss-Gluc Assay; format: cell-based; conditions: 24 hr Dox induction; 293FRT/TO cells; read-out: 24 hr Dox Inducible PD1ssGluc 293FRT/TO: Mean IC50
Outline: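 The cell line was made by transfecting Flp-In 293 T-REx cells with a PD1 signal sequence+10aa–Gaussia luciferase fusion under T-REx control and selecting with hygromycin and blasticidin. Cells were seeded, and next day compound plus doxycycline was added at 37 °C, 5% CO2.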

[5] = test system: multiple myeloma cell line NCI-H929; assay: H929 Cell Viability Assay; format: cell-based, human; conditions: Homo sapiens, NCI-H929, 48 h, NCI-H929 cells, Celltiter-Glo
Outline: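 A 48-hour compound treatment of cells in 10% FBS RPMI medium was followed by luciferase-based viability quantification.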

[6] = Liver Microsome Stability Assay (monkey); conditions: monkey liver microsomes, with NADPH, 1.0 uM compound
Description: as §1

[7] = test system: TNFα-FL/Gaussia Luciferase; assay: Dox Induced TNFα-FL-Gluc Assay; format: cell-based; conditions: for IC50: 24 hr Dox induction, 293FRT/TO cells, read-out: 24 hr Dox Inducible TNFaFLGluc 293FRT/TO: Mean IC50; for 24 hr Dox Inducible TNFaFLGluc 293FRT/TO: TNF/PD1: ratio of TNFaFLGluc IC50 to PD1ssGluc IC50
Outline: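 Hygromycin/blasticidin-selected Flp-In 293 T-REx cells, TNFα-FL/Gaussia luciferase fusion under T-REx control; overnight plating, then compound in DMSO/media with doxycycline at 37 °C, 5% CO2; stereo-undefined structures tested as mixtures.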

[8] = Liver Microsome Stability Assay (rat); conditions: rat liver microsomes, with NADPH, 1.0 uM compound
Description: as §1

[9] = Liver Microsome Stability Assay (human); conditions: human liver microsomes, with NADPH, 1.0 uM compound
Description: as §1

[10] = test system: IL-2-FL/Gaussia Luciferase; assay: Dox Induced IL2-FL-Gluc Assay; format: cell-based; conditions: for IC50: 24 hr Dox induction, 293FRT/TO cells, read-out: 24 hr Dox Inducible IL2FLGluc 293FRT/TO: Mean IC50; for 24 hr Dox Inducible IL2FLGluc 293FRT/TO: IL2/PD1: ratio of IL2FLGluc IC50 to PD1ssGluc IC50
Outline: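 A hygromycin- and blasticidin-resistant 293 T-REx clone carrying inducible IL-2–Gaussia luciferase (full-length IL-2, residues 1-153) serves as the cell system. After overnight plating, the cells get test compounds together with doxycycline in DMSO/media and are incubated at 37° C, 5% CO2.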

SMILES: CNCCOc1ccc(N2CCC[C@@H]2c2csc(NC(=O)c3cccn3Cc3ccnc(F)c3)n2)cc1 [Compound A103, (R)-1-((2-fluoropyridin-4-yl)methyl)-N-(4-(1-(4-(2-(methylamino)ethoxy)phenyl)pyrrolidin-2-yl)thiazol-2-yl)-1H-pyrrole-2-carboxamide]
IC50 [1]: 670 nM | Liver Microsome Stability (Multiple Species): Mouse - % Remaining after 30 min w/NADPH [2]: 55% | EC50 [3]: 5660 nM | IC50 [4]: 296 nM | EC50 [5]: 4040 nM | Liver Microsome Stability (Multiple Species): Monkey - % Remaining after 30 min w/NADPH [6]: 47.2% | IC50 [7]: 8640 nM | 24 hr Dox Inducible TNFaFLGluc 293FRT/TO: TNF/PD1 [7]: 29.2 | Liver Microsome Stability (Multiple Species): Rat - % Remaining after 30 min w/NADPH [8]: 28.3% | Liver Microsome Stability (Multiple Species): Human - % Remaining after 30 min w/NADPH [9]: 67% | IC50 [10]: 843 nM | 24 hr Dox Inducible IL2FLGluc 293FRT/TO: IL2/PD1 [10]: 2.9

SMILES: CN(C)CCOc1ccc(N2CCC[C@@H]2c2csc(NC(=O)c3cccn3Cc3ccnc(F)c3)n2)cc1 [Compound A104, (R)-N-(4-(1-(4-(2-(dimethylamino)ethoxy)phenyl)pyrrolidin-2-yl)thiazol-2-yl)-1-((2-fluoropyridin-4-yl)methyl)-1H-pyrrole-2-carboxamide]
IC50 [1]: 355 nM | Liver Microsome Stability (Multiple Species): Mouse - % Remaining after 30 min w/NADPH [2]: 16.5% | EC50 [3]: 5760 nM | IC50 [4]: 153 nM | EC50 [5]: 3170 nM | Liver Microsome Stability (Multiple Species): Monkey - % Remaining after 30 min w/NADPH [6]: 51.6% | IC50 [7]: 4030 nM | 24 hr Dox Inducible TNFaFLGluc 293FRT/TO: TNF/PD1 [7]: 26.3 | Liver Microsome Stability (Multiple Species): Rat - % Remaining after 30 min w/NADPH [8]: 27.9% | Liver Microsome Stability (Multiple Species): Human - % Remaining after 30 min w/NADPH [9]: 68.8% | IC50 [10]: 435 nM | 24 hr Dox Inducible IL2FLGluc 293FRT/TO: IL2/PD1 [10]: 2.8

SMILES: CC(=O)N1CCC(Oc2cc(F)c(N3CCC[C@@H]3c3csc(NC(=O)c4cccn4Cc4ccnc(F)c4)n3)c(F)c2)CC1 [Compound A105, (R)-N-(4-(1-(4-((1-acetylpiperidin-4-yl)oxy)-2,6-difluorophenyl)pyrrolidin-2-yl)thiazol-2-yl)-1-((2-fluoropyridin-4-yl)methyl)-1H-pyrrole-2-carboxamide]
IC50 [1]: 91.7 nM | Liver Microsome Stability (Multiple Species): Mouse - % Remaining after 30 min w/NADPH [2]: 1.29% | EC50 [3]: > 25000 nM | IC50 [4]: 53.6 nM | EC50 [5]: 1030 nM | Liver Microsome Stability (Multiple Species): Monkey - % Remaining after 30 min w/NADPH [6]: 0.98% | IC50 [7]: 524 nM | 24 hr Dox Inducible TNFaFLGluc 293FRT/TO: TNF/PD1 [7]: 9.81 | Liver Microsome Stability (Multiple Species): Rat - % Remaining after 30 min w/NADPH [8]: 16.9% | Liver Microsome Stability (Multiple Species): Human - % Remaining after 30 min w/NADPH [9]: 0.87% | IC50 [10]: 65.8 nM | 24 hr Dox Inducible IL2FLGluc 293FRT/TO: IL2/PD1 [10]: 1.2

SMILES: O=C(Nc1nc([C@H]2CCCN2c2ccc(OC3CCNCC3F)cc2)cs1)c1cccn1Cc1ccnc(F)c1 (stereo partly drawn) [Compound A107, N-(4-((2R)-1-(4-((3-fluoropiperidin-4-yl)oxy)phenyl)pyrrolidin-2-yl)thiazol-2-yl)-1-((2-fluoropyridin-4-yl)methyl)-1H-pyrrole-2-carboxamide]
IC50 [1]: 322 nM | Liver Microsome Stability (Multiple Species): Mouse - % Remaining after 30 min w/NADPH [2]: 6% | EC50 [3]: 7280 nM | IC50 [4]: 205 nM | EC50 [5]: 4550 nM | Liver Microsome Stability (Multiple Species): Monkey - % Remaining after 30 min w/NADPH [6]: 12.7% | IC50 [7]: 2910 nM | 24 hr Dox Inducible TNFaFLGluc 293FRT/TO: TNF/PD1 [7]: 14.2 | Liver Microsome Stability (Multiple Species): Rat - % Remaining after 30 min w/NADPH [8]: 64.6% | Liver Microsome Stability (Multiple Species): Human - % Remaining after 30 min w/NADPH [9]: 23.1% | IC50 [10]: 462 nM | 24 hr Dox Inducible IL2FLGluc 293FRT/TO: IL2/PD1 [10]: 2.3

SMILES: CC(=O)N1CCC(Oc2ccc(N3CCC[C@@H]3c3csc(NC(=O)c4cccn4Cc4ccnc(F)c4)n3)cc2)C(F)C1 (stereo partly drawn) [Compound A108, N-(4-((2R)-1-(4-((1-acetyl-3-fluoropiperidin-4-yl)oxy)phenyl)pyrrolidin-2-yl)thiazol-2-yl)-1-((2-fluoropyridin-4-yl)methyl)-1H-pyrrole-2-carboxamide]
IC50 [1]: 72.9 nM | Liver Microsome Stability (Multiple Species): Mouse - % Remaining after 30 min w/NADPH [2]: 17% | EC50 [3]: > 25000 nM | IC50 [4]: 33.7 nM | EC50 [5]: 1280 nM | Liver Microsome Stability (Multiple Species): Monkey - % Remaining after 30 min w/NADPH [6]: 0.49% | IC50 [7]: 283 nM | 24 hr Dox Inducible TNFaFLGluc 293FRT/TO: TNF/PD1 [7]: 8.39 | Liver Microsome Stability (Multiple Species): Rat - % Remaining after 30 min w/NADPH [8]: 39% | Liver Microsome Stability (Multiple Species): Human - % Remaining after 30 min w/NADPH [9]: 13.2% | IC50 [10]: 71.2 nM | 24 hr Dox Inducible IL2FLGluc 293FRT/TO: IL2/PD1 [10]: 2.1

SMILES: O=C(Nc1nc([C@H]2CCCN2c2ccc(OC3CN(C(=O)C4CC4)C3)cc2)cs1)c1cccn1Cc1ccnc(F)c1 [Compound A109, (R)-N-(4-(1-(4-((1-(cyclopropanecarbonyl)azetidin-3-yl)oxy)phenyl)pyrrolidin-2-yl)thiazol-2-yl)-1-((2-fluoropyridin-4-yl)methyl)-1H-pyrrole-2-carboxamide]
IC50 [1]: 39.2 nM | Liver Microsome Stability (Multiple Species): Mouse - % Remaining after 30 min w/NADPH [2]: 21% | EC50 [3]: > 25000 nM | IC50 [4]: 31 nM | EC50 [5]: 1230 nM | Liver Microsome Stability (Multiple Species): Monkey - % Remaining after 30 min w/NADPH [6]: 2.02% | IC50 [7]: 302 nM | 24 hr Dox Inducible TNFaFLGluc 293FRT/TO: TNF/PD1 [7]: 9.75 | Liver Microsome Stability (Multiple Species): Rat - % Remaining after 30 min w/NADPH [8]: 55.6% | Liver Microsome Stability (Multiple Species): Human - % Remaining after 30 min w/NADPH [9]: 13.8% | IC50 [10]: 90.7 nM | 24 hr Dox Inducible IL2FLGluc 293FRT/TO: IL2/PD1 [10]: 2.9

These reach a lower IC50 [1]. Values come first.

IC50 [1]: 36.4 nM | Liver Microsome Stability (Multiple Species): Mouse - % Remaining after 30 min w/NADPH [2]: 31.2% | EC50 [3]: > 25000 nM | IC50 [4]: 23.2 nM | EC50 [5]: 884 nM | Liver Microsome Stability (Multiple Species): Monkey - % Remaining after 30 min w/NADPH [6]: 4.58% | IC50 [7]: 310 nM | Liver Microsome Stability (Multiple Species): Rat - % Remaining after 30 min w/NADPH [8]: 55.7% | Liver Microsome Stability (Multiple Species): Human - % Remaining after 30 min w/NADPH [9]: 10.5% | IC50 [10]: 79.8 nM
SMILES: O=C(Nc1nc([C@H]2CCCN2c2ccc(OC3CN(C(=O)CO)C3)cc2)cs1)c1cccn1Cc1ccnc(F)c1 [Compound A110, (R)-1-((2-fluoropyridin-4-yl)methyl)-N-(4-(1-(4-((1-(2-hydroxyacetyl)azetidin-3-yl)oxy)phenyl)pyrrolidin-2-yl)thiazol-2-yl)-1H-pyrrole-2-carboxamide]
24 hr Dox Inducible TNFaFLGluc 293FRT/TO: TNF/PD1 [7]: 13.4 | 24 hr Dox Inducible IL2FLGluc 293FRT/TO: IL2/PD1 [10]: 3.4

IC50 [1]: 16.9 nM | Liver Microsome Stability (Multiple Species): Mouse - % Remaining after 30 min w/NADPH [2]: 7.68% | EC50 [3]: > 25000 nM | IC50 [4]: 15 nM | EC50 [5]: 317 nM | Liver Microsome Stability (Multiple Species): Monkey - % Remaining after 30 min w/NADPH [6]: 1.22% | IC50 [7]: 121 nM | Liver Microsome Stability (Multiple Species): Rat - % Remaining after 30 min w/NADPH [8]: 19.7% | Liver Microsome Stability (Multiple Species): Human - % Remaining after 30 min w/NADPH [9]: 8.26% | IC50 [10]: 27.5 nM
SMILES: CC(=O)N1CCC(Oc2ccc(N3CCC[C@@H]3c3csc(NC(=O)c4cccn4Cc4ccnc(F)c4)n3)cc2F)CC1 [Compound A102, (R)-N-(4-(1-(4-((1-acetylpiperidin-4-yl)oxy)-3-fluorophenyl)pyrrolidin-2-yl)thiazol-2-yl)-1-((2-fluoropyridin-4-yl)methyl)-1H-pyrrole-2-carboxamide]
24 hr Dox Inducible TNFaFLGluc 293FRT/TO: TNF/PD1 [7]: 8.11 | 24 hr Dox Inducible IL2FLGluc 293FRT/TO: IL2/PD1 [10]: 1.8

IC50 [1]: 15.6 nM | Liver Microsome Stability (Multiple Species): Mouse - % Remaining after 30 min w/NADPH [2]: 1.43% | EC50 [3]: > 25000 nM | IC50 [4]: 16.3 nM | EC50 [5]: 472 nM | Liver Microsome Stability (Multiple Species): Monkey - % Remaining after 30 min w/NADPH [6]: 0.35% | IC50 [7]: 120 nM | Liver Microsome Stability (Multiple Species): Rat - % Remaining after 30 min w/NADPH [8]: 3.12% | Liver Microsome Stability (Multiple Species): Human - % Remaining after 30 min w/NADPH [9]: 2.95% | IC50 [10]: 26.2 nM
SMILES: CC(=O)N1CCC(Oc2c(F)cc(N3CCC[C@@H]3c3csc(NC(=O)c4cccn4Cc4ccnc(F)c4)n3)cc2F)CC1 [Compound A106, (R)-N-(4-(1-(4-((1-acetylpiperidin-4-yl)oxy)-3,5-difluorophenyl)pyrrolidin-2-yl)thiazol-2-yl)-1-((2-fluoropyridin-4-yl)methyl)-1H-pyrrole-2-carboxamide]
24 hr Dox Inducible TNFaFLGluc 293FRT/TO: TNF/PD1 [7]: 7.32 | 24 hr Dox Inducible IL2FLGluc 293FRT/TO: IL2/PD1 [10]: 1.6
